Reference: ChEMBL document CHEMBL1134827, “Design and synthesis of novel 2,3-dihydro-1H-isoindoles with high affinity and selectivity for the dopamine D3 receptor” (Bioorg Med Chem Lett, 2001)

Tests used:
[1] = target: D(3) dopamine receptor (Homo sapiens, UniProt P35462); experiment: Displacement of [125I]iodosulpiride from human Dopamine receptor D3 expressed in CHO cells; assay type: cell-based
[2] = target: D(2) dopamine receptor (Homo sapiens, UniProt P14416); experiment: Displacement of [125I]iodosulpiride from human Dopamine receptor D2 expressed in CHO cells; assay type: cell-based
Chain of D(2) dopamine receptor (P14416 whole entry): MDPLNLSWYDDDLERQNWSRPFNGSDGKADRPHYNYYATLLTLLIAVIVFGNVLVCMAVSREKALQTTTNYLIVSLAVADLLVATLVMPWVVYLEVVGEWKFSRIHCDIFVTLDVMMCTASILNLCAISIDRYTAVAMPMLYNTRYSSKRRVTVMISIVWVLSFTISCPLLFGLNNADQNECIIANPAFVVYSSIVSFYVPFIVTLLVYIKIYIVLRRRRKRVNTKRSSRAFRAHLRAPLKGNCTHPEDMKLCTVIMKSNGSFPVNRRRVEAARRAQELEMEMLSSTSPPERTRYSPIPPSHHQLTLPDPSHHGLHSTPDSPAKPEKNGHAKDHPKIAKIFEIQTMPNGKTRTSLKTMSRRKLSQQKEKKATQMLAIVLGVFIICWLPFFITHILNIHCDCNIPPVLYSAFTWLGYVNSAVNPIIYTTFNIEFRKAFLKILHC

[3] = target: T1, 5-hydroxytryptamine receptor 2C (Homo sapiens, UniProt P28335); experiment: Evaluated for the binding affinity to 5-hydroxytryptamine 2C receptor
T1 sequence (P28335 whole entry): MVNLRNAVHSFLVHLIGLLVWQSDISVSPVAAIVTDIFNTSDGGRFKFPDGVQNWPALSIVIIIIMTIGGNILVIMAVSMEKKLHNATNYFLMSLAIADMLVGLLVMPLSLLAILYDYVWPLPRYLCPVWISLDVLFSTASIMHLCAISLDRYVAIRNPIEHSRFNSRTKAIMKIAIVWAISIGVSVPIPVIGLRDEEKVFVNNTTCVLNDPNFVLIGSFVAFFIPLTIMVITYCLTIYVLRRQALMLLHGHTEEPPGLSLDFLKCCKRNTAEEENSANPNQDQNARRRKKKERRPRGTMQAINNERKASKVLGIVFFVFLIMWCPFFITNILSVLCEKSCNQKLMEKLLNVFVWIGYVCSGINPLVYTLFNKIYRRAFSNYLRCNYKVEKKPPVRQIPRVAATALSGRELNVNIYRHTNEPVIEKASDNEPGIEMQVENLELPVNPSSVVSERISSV

[4] = target: T2, 5-hydroxytryptamine receptor 1A (Homo sapiens, UniProt P08908); experiment: Evaluated for the binding affinity to 5-hydroxytryptamine 1A receptor
T2 sequence (P08908 whole entry): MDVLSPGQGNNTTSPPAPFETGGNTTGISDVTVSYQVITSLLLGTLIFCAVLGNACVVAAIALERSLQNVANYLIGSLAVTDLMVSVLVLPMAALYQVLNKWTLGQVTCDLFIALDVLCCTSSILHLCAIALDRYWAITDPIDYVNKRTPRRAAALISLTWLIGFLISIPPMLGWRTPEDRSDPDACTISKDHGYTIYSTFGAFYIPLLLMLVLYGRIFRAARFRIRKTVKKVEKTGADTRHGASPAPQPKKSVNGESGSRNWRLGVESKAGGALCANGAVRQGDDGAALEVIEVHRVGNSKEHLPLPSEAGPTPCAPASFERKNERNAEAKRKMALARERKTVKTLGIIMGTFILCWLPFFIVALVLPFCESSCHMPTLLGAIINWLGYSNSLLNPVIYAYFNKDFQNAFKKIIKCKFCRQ

[5] = Evaluated for the half life in rat (in vivo); assay type: ADME, organism-based
[6] = Evaluated for the bioavailability in rat (in vivo); assay type: ADME, organism-based
[7] = Evaluated for the low clearance in rat (in vivo); assay type: ADME, organism-based; details: blood, read-out: CLb
[8] = target: 5-hydroxytryptamine receptor 2A (Homo sapiens, UniProt P28223); experiment: Evaluated for the binding affinity towards 5-hydroxytryptamine 2A receptor
Chain of 5-hydroxytryptamine receptor 2A (P28223 whole entry): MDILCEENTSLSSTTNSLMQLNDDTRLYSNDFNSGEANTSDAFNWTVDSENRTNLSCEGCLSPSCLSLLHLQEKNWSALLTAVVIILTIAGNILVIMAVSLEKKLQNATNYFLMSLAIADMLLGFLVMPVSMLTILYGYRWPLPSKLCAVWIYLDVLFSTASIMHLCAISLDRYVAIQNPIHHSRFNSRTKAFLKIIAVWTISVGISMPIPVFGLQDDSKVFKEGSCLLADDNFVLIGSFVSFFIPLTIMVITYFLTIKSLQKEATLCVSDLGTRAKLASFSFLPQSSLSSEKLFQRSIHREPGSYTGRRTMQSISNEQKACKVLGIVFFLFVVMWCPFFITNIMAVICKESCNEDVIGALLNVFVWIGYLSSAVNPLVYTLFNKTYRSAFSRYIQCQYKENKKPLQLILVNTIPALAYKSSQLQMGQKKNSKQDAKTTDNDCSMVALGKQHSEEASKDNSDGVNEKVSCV

[9] = target: 5-hydroxytryptamine receptor 1D (Homo sapiens, UniProt P28221); experiment: Evaluated for the binding affinity against 5-hydroxytryptamine 1D receptor
Chain of 5-hydroxytryptamine receptor 1D (P28221 whole entry): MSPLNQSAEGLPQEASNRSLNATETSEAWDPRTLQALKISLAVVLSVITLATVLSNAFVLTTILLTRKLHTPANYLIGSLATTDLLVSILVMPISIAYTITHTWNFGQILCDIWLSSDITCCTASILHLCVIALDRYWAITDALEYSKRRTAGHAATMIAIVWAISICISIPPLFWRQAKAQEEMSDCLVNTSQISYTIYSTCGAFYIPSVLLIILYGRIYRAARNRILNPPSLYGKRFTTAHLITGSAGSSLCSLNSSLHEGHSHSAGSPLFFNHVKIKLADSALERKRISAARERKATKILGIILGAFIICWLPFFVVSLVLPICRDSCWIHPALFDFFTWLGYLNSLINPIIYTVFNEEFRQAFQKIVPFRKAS

[10] = target: 5-hydroxytryptamine receptor 7 (Homo sapiens, UniProt P34969); experiment: Evaluated for the binding affinity to 5-hydroxytryptamine 7 receptor
Chain of 5-hydroxytryptamine receptor 7 (P34969 whole entry): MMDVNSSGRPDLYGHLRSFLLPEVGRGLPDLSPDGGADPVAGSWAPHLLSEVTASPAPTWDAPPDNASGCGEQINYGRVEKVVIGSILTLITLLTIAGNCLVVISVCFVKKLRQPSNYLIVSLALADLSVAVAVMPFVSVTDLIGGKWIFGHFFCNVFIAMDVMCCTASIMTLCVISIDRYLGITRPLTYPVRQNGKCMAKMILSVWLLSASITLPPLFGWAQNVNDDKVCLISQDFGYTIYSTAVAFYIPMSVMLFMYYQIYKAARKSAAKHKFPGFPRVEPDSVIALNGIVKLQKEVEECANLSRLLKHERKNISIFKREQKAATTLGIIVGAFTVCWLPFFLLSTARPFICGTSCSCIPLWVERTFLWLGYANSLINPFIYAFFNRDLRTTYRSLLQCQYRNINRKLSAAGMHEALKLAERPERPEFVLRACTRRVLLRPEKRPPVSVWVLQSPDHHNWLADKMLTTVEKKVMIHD

[11] = target: 5-hydroxytryptamine receptor 2B (Homo sapiens, UniProt P41595); experiment: Evaluated for the binding affinity to 5-HT 2B receptor
Chain of 5-hydroxytryptamine receptor 2B (P41595 whole entry): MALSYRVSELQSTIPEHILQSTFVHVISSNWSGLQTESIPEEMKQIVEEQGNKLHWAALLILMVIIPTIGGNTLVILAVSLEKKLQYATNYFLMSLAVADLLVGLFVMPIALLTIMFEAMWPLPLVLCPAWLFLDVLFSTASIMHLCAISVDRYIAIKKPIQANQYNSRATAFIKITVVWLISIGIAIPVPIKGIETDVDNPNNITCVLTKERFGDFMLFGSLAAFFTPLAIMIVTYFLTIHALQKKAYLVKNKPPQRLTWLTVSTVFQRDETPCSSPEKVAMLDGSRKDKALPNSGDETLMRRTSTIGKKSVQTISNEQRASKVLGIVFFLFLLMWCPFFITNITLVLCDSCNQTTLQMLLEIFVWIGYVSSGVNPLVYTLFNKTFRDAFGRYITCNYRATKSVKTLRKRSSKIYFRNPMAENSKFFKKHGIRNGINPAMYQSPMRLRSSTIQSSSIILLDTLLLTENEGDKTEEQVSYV

[12] = target: 5-hydroxytryptamine receptor 6 (Homo sapiens, UniProt P50406); experiment: Evaluated for the binding affinity towards 5-hydroxytryptamine 6 receptor
Chain of 5-hydroxytryptamine receptor 6 (P50406 whole entry): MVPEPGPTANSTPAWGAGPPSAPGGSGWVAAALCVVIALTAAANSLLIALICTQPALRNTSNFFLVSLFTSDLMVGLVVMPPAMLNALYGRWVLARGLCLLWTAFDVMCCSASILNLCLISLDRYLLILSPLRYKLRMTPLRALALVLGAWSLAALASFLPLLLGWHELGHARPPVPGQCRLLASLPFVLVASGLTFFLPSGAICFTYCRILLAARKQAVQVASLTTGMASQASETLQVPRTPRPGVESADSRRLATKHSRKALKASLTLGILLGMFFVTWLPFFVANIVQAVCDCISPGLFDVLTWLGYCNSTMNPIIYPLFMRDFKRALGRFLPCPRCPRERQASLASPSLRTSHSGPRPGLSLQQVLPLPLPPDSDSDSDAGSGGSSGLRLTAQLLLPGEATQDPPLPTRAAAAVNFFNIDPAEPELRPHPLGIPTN

[13] = target: T3, Alpha-1B adrenergic receptor (Homo sapiens, UniProt P35368); experiment: Evaluated for the binding affinity to alpha 1B receptor
T3 sequence (P35368 whole entry): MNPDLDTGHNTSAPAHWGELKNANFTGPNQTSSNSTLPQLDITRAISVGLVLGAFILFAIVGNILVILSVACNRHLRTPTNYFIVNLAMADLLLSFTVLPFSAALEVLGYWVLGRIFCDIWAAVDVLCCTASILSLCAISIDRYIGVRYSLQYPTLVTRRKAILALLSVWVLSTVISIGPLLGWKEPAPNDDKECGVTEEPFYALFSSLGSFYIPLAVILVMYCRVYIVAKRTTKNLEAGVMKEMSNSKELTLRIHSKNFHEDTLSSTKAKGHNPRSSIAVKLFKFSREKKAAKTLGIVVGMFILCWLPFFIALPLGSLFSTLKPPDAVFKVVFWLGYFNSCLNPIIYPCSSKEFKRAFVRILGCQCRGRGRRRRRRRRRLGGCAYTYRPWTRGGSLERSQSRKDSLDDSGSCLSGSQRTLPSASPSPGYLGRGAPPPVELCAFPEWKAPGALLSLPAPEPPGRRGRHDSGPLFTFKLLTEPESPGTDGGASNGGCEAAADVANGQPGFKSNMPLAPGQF

[14] = target: 5-hydroxytryptamine receptor 1B (Homo sapiens, UniProt P28222); experiment: Evaluated for the binding affinity to 5-hydroxytryptamine 1B receptor
Chain of 5-hydroxytryptamine receptor 1B (P28222 whole entry): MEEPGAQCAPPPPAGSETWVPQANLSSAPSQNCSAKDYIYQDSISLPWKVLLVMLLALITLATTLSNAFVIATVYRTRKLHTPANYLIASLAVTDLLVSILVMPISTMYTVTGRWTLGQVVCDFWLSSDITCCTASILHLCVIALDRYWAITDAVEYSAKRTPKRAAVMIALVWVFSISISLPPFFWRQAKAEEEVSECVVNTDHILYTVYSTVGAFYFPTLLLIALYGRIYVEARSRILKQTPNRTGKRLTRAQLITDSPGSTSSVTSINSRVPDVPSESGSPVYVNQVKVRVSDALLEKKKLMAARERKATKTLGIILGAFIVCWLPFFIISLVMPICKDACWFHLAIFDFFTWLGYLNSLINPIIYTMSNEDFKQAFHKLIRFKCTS

[15] = target: D(3) dopamine receptor (Rattus norvegicus) (UniProt P19020); experiment: Antagonistic activity at D3 receptor using in vitro functional assay
Chain of D(3) dopamine receptor (Rattus norvegicus) (P19020 whole entry): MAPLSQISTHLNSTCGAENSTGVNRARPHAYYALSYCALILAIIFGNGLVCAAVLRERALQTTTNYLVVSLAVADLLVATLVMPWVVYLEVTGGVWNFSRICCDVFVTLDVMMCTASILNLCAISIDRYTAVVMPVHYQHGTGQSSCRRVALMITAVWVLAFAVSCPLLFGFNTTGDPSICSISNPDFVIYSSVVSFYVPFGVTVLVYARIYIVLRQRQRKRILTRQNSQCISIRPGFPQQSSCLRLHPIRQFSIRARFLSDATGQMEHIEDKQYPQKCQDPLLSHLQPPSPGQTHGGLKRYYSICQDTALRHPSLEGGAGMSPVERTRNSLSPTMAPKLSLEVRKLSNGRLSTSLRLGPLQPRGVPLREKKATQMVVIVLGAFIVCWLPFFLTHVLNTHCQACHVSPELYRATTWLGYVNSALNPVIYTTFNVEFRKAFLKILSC

Chain of D(3) dopamine receptor (P35462 whole entry): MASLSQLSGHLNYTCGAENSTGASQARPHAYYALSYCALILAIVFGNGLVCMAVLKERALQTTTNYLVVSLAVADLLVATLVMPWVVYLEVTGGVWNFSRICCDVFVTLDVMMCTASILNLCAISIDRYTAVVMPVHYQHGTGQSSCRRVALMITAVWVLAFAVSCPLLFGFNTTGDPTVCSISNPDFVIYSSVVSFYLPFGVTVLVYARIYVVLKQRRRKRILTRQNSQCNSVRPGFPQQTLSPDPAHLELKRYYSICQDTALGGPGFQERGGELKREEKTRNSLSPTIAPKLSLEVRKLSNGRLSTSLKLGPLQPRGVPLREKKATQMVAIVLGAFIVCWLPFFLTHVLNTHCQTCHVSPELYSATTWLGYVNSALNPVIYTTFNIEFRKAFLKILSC

SMILES	Ki [1] [nM]	Ki [2] [nM]	also measured
N#Cc1ccc2c(c1)CN(CC[C@H]1CC[C@H](NC(=O)c3cc4ccccc4[nH]3)CC1)C2	25.1	2510	
N#Cc1ccc2c(c1)CN(CC[C@H]1CC[C@H](NC(=O)/C=C/c3ccc(F)cc3)CC1)C2	12.6	631	
CS(=O)(=O)Oc1ccc2c(c1)CN(CC[C@H]1CC[C@H](NC(=O)/C=C/c3ccc(F)cc3)CC1)C2	5.01	501	Ki [3]: > 7940 nM; Ki [4]: 3160 nM; half-life [5]: 5.2 h; bioavailability [6]: 77%; clearance [7]: 14 mL/min/kg; Ki [8]: > 5010 nM; Ki [9]: 1260 nM; Ki [10]: > 3980 nM; Ki [11]: > 1000 nM; Ki [12]: > 10000 nM; Ki [13]: > 5010 nM; Ki [14]: 5010 nM; pKb [15]: 8.3
O=C(/C=C/c1ccc(F)cc1)N[C@H]1CC[C@H](CCN2Cc3ccc(Br)cc3C2)CC1	3.16	100	
COc1cccc(/C=C/C(=O)N[C@H]2CC[C@H](CCN3Cc4ccc(C#N)cc4C3)CC2)c1	10	1000	
O=C(/C=C/c1ccc(F)cc1)N[C@H]1CC[C@H](CCN2Cc3ccc(C(F)(F)F)cc3C2)CC1	10	398	
N#Cc1ccc2c(c1)CN(CC[C@H]1CC[C@H](NC(=O)c3ccnc4ccccc34)CC1)C2	63.1	2510	
COc1ccc2c(c1)CN(CC[C@H]1CC[C@H](NC(=O)/C=C/c3ccc(F)cc3)CC1)C2	7.94	200	
